# Reference: patent US9617249B2, “Benzoheterocyclic anti-bacterial agents” (UNIVERSITY OF NOTRE DAME DU LAC, priority 2008, dated 2017)
# What was measured:
# Format in all cases: cell-based
# Gram-positive strains = test: MIC and MBC determinations against Gram-positive strains; settings: most Gram-positive isolates (FIG. 11)
# Experimental: FIG. 11 illustrates the minimum inhibitory concentration (MIC) and the minimum bactericidal concentration (MBC) determinations of ND-7901 to various Gram-positive strains. A series of broths were mixed with solutions of diluted drug an inoculum was applied. After incubation, the MIC was determined as the first concentration in which the growth of the organism has been inhibited. In contrast, the MBC was measured by inoculating the series of broths used for the MIC determination onto drug-free medium. The MBC is the first dilution at which growth is not observed. ND-7901 is bactericidal against most Gram-positive isolates.
# [1] = system: methicillin-sensitive S. aureus (MSSA), ATCC 29213; test: Time-kill assay; settings: MSSA ATCC 29213, drug at various concentrations, Vancomycin as control (FIG. 12)
# [2] = system: Gram-positive clinical isolate strains; test: Potency and selectivity against panel of Gram-positive clinical isolate strains; settings: Ciprofloxacin standard (FIG. 9)
# Text: (§1) FIG. 9 illustrates the potency and selectivity of ND-7901 against a panel of Gram-positive clinical isolate strains compared to a Ciprofloxacin standard in micrograms per milliliter. […] FIG. 10 illustrates the potency and selectivity of ND-7901 against a panel of Gram-negative clinical isolate strains compared to a Ciprofloxacin standard in micrograms per milliliter.
# S. aureus strains [3] = test: Mutational analysis by serial transfer experiments; settings: 0.5-2 times the MIC, after 8 passages (FIG. 14)
# Experimental: FIG. 14 illustrates the mutational analysis of ND-7901 by serial transfer experiments. As such, the S. aureus strains were grown with ND-7901 (0.5-2 times the MIC) added and passed serially until resistance was found.
# [4] = system: Gram-negative clinical isolate strains; test: Potency and selectivity against panel of Gram-negative clinical isolate strains; settings: Ciprofloxacin standard (FIG. 10)
# Text: as §1
# S. aureus strains [5] = test: Mutational analysis by growth without selection and recovery on drug plates; settings: overnight growth with no selection, drug plates at 2-4 times the MIC (FIG. 13)
# Text: FIG. 13 illustrates a mutational analysis of […] by growth of S. aureus strains overnight with no selection and recovery of resistant colonies on drug plates at 2-4 times the MIC value.
# [6] = system: Methicillin-resistant Staphylococcus aureus (MRSA); test: MIC against MRSA
# Text: (§2) In embodiments, various molecules as described herein have surprising activity against MRSA. […] While this particular molecule has been tested previously, the present application is the first disclosure of this compound having activity against multi-drug resistant “super bug” strains. In addition, in accordance with an embodiment described herein, this compound and analogs thereof may be synthesized in high yields in just a single step. Further embodiments herein provide analogs of the afore-mentioned compounds and methods of making and using such compounds.
# (§3) In accordance with an embodiment, in order to first broadly screen these compounds, an agar diffusion assay was employed to determine whether these compounds have any activity against a diverse array of organisms which include MRSA and VRE. […] FIG. 4 illustrates selectivity and potency of various benzimidazoles, benzthiazoles, and benzoxazoles against a panel of microorganisms including gram-positive bacteria, gram-negative bacteria, fungi, yeast, and mycobacteria. The minimum inhibition concentration at 90% is shown in micromolar concentration. […] Therefore many of the compounds had their MICs determined which reflected many of the findings of the diffusion assay. FIG. 5 illustrates the chemical structure, molecular weight, and chemical formula of most of the compounds of FIG. 4.
# [7] = system: Vancomycin-Resistant Enterococcus (VRE); test: MIC against VRE
# Text: as §2, §3
MIC [6],MIC [7],Structure (SMILES),bactericidal character (MBC versus MIC) (Gram-positive strains),kinetics of bacteria death (time-kill) [1],activity against Gram-positive isolates [2],level of resistance after serial passage (S. aureus strains [3]),activity against Gram-negative isolates [4],spontaneous resistant mutants recovered (S. aureus strains [5])
–,–,O=[N+]([O-])c1ccc(-c2nc3cccc(O)c3[nH]2)o1 [ND-7901],bactericidal,rapid kinetics of bacteria death,good activity,very low level of resistance,limited activity,no spontaneous mutants were recovered
8 µM,16 µM,O=[N+]([O-])c1ccc(-c2nc3ccccc3[nH]2)o1 [nitrofuran benzimidazole],–,–,–,–,–,–
